Results: patent US6576600B1, “Detergent” (Tokuyama Corporation, priority 1999, dated 2003)

Test: Solubility / compatibility of the organic solvents in water at 60° C.
Assay type: physicochemical
Procedure: The above component (A) in the present invention is a polar organic solvent having low compatibility with water. The expression “low compatibility with water” means that only a small amount of the component dissolves in water, the solubility in water at 60° C., that is, the proportion of a portion soluble in water is preferably 50 vol % or less, more preferably 30 vol % or less. The expression “polar organic solvent” means an organic solvent having a relative dielectric constant of preferably 8 or more, more preferably 10 or more.
The organic solvents used in the examples and comparative examples are as follows.

CCN1CCN(C)C1=O [DEI, 1-ethyl-3-methyl-2-imidazolidinone]
compatibility with water at 60° C.: compatible with water at 60 °C in any ratio

CN1CCN(C)C1=O [DMI, 1,3-dimethyl-2-imidazolidinone]
compatibility with water at 60° C.: compatible with water at 60 °C in any ratio

CCOCC(C)OCC(C)OCC (centres unmarked) [DPDE, dipropylene glycol diethyl ether]
solubility in water at 60° C.: 5 vol %

CCCN1CCN(CCC)C1=O [DPI, 1,3-dipropyl-2-imidazolidinone]
solubility in water at 60° C.: 12 vol %

COC(C)COC(C)CO (centres unmarked) [DPM, dipropylene glycol monomethyl ether, reference compound]
compatibility with water at 60° C.: compatible with water at 60 °C in any ratio

CCCOC(C)COC(C)CO (centres unmarked) [DPP, dipropylene glycol monopropyl ether]
solubility in water at 60° C.: 10 vol %

CCCCCCCCN1CCCC1=O [NOP, N-octylpyrrolidone]
solubility in water at 60° C.: 13 vol %

CCCCOCC(C)O (centres unmarked) [PB, propylene glycol monobutyl ether]
solubility in water at 60° C.: 6 vol %
